pIC50: −log10 of the molar value. Several values for one entry are separate records, joined by “and”; a condition that tells them apart may be missing. Identical values can stand only once.
biological target: Genome polyprotein (dengue virus type 2, UniProt P29990); assay type: functional, Thailand/16681/1984
Sequence (P29990 1346-1475 limits assumed): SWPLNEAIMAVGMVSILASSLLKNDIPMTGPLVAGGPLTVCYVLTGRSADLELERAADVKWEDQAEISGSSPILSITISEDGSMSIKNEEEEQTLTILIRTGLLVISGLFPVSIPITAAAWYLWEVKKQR
Sequence (P29990 1476-2093 limits assumed): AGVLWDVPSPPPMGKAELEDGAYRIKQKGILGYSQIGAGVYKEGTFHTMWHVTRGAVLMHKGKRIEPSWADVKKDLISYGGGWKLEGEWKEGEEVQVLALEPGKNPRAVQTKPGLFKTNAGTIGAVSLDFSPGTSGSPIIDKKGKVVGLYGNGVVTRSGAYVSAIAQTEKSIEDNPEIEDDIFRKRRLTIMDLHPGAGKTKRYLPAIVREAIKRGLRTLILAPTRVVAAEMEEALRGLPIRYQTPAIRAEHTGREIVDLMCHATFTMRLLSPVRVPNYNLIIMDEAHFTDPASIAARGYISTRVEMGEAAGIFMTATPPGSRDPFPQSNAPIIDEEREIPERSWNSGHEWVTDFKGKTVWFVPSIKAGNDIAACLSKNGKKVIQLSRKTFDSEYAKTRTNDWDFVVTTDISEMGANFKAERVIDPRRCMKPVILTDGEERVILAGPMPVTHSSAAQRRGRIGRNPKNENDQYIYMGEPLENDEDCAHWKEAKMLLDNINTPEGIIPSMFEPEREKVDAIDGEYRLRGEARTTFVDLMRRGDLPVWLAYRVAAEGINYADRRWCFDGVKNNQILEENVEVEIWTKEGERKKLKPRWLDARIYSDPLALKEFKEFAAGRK

`c1ccc(COc2cccc3[nH]cc(CN4CCC(c5cscn5)CC4)c23)cc1` and `c1ccc(COc2ccc3[nH]cc(CN4CCC(c5cscn5)CC4)c3c2)cc1` cannot be ordered by pIC50: under 4.00 for the first, under 4.00 for the second.

Going from `NCc1cccc(NC(=O)c2cc(F)cc(NC(=O)OCc3ccccc3)c2F)c1` to `Cc1c(NC(=O)OCc2ccccc2)cc(C(F)(F)F)cc1C(=O)Nc1cccc(CN)c1`, the pIC50 rises from under 4.00 to 4.29. The second is the more potent here.

`c1ccc2c(CNCc3ccc(-c4cscn4)cc3)c[nH]c2c1` and `c1ccc2c(CN3CC(c4cscn4)C3)c[nH]c2c1` cannot be ordered by pIC50: under 4.00 for the first, under 4.00 for the second.

`Cn1cc(N2CCN(Cc3c[nH]c4ccccc34)CC2)cn1` and `c1ccc2c(CN3CCN(c4ccncc4)CC3)c[nH]c2c1` cannot be ordered by pIC50: under 4.00 for the first, under 4.00 for the second.

`Cc1nocc1S(=O)(=O)N[C@H](C(=O)Nc1cccc(CN)c1)c1ccc(OCc2ccccc2)cc1` and `NCc1cccc(NC(=O)[C@H](NS(=O)(=O)Cc2ccccc2)c2ccc(OCc3ccccc3)cc2)c1` cannot be ordered by pIC50: under 4.00 for the first, under 4.00 for the second.

`O=C(c1cccnc1)N1CCN(Cc2c[nH]c3ccccc23)CC1` and `O=S(=O)(c1cccnc1)N1CCN(Cc2c[nH]c3ccccc23)CC1` cannot be ordered by pIC50: under 4.00 for the first, under 4.00 for the second.

`O=c1[nH]c2cccc(N3CCN(Cc4c[nH]c5ccccc45)CC3)c2[nH]1` and `NC(=O)c1cnccc1N1CCN(Cc2c[nH]c3ccccc23)CC1` cannot be ordered by pIC50: under 4.00 for the first, under 4.00 for the second.

`O=C(Nc1cc(Cl)cc(C(=O)Nc2ncc3n2CCNC3)c1)OCc1ccccc1` and `O=C(Nc1cc(Cl)cc(C(=O)Nc2cnc3n2CCNC3)c1)OCc1ccccc1` cannot be ordered by pIC50: under 4.00 for the first, under 4.00 for the second.

First: NCc1cccc(NC(=O)[C@@H]2[C@@H]3CCCCC[C@@H]3[C@@H]2NC(=O)OCc2ccccc2)c1
Second: NCc1cccc(NC(=O)[C@@H]2C[C@H](NC(=O)OCc3ccccc3)[C@H]3C[C@H]32)c1
The pIC50 of the first is higher: 4.65 for the first, under 4.00 for the second. The first is the more potent here.

`CN(C)Cc1cc(NC(=O)c2cc(Cl)cc(NC(=O)OCc3ccccc3)c2)sn1` and `CN1CCn2nc(NC(=O)c3cc(Cl)cc(NC(=O)OCc4ccccc4)c3)cc2C1` cannot be ordered by pIC50: under 4.00 for the first, under 4.00 for the second.

Compared with `NCc1cccc(NC(=O)c2cc(Cl)cc(CN)c2)c1`, `NCc1cccc(NC(=O)c2cc(Cl)cc(CNC(=O)OCc3ccccc3)c2)c1` is higher in pIC50: under 4.00 for the first, 4.07 for the second.

Going from `NCc1cccc(NC(=O)[C@H](NC(=O)OCc2ccccc2)C2CCNCC2)c1` to `NCc1cccc(NC(=O)[C@@H](NC(=O)OCc2ccccc2)c2cccc(OCC3CCC3)c2)c1`, the pIC50 rises from under 4.00 to 4.36. The second is the more potent here.

`c1ccc(OC2CCN(Cc3c[nH]c4ccccc34)CC2)cc1` and `c1ccc(CC2CCN(Cc3c[nH]c4ccccc34)CC2)cc1` cannot be ordered by pIC50: under 4.00 for the first, under 4.00 for the second.

Compared with `NCc1cccc(S(=O)(=O)Nc2cc(Cl)cc(NC(=O)OCc3ccccc3)c2)c1`, `NCc1cccc(C(=O)Nc2cc(Cl)cc(NC(=O)OCc3ccccc3)c2)c1` is higher in pIC50: under 4.00 for the first, 4.17 for the second. The second is the more potent here.

`NCc1ccccc1Oc1ccc(S(=O)(=O)Nc2ccc(Cl)cc2C(=O)O)cc1` and `COCc1ccccc1Nc1ccc(S(=O)(=O)Nc2ccc(Cl)cc2C(=O)O)cn1` cannot be ordered by pIC50: under 4.00 for the first, under 4.00 for the second.

`CN1CCc2nc(NC(=O)c3cc(Cl)cc(NC(=O)OCc4ccccc4)c3)sc2C1` and `CC(C)N1CCc2nc(NC(=O)c3cc(Cl)cc(NC(=O)OCc4ccccc4)c3)sc2C1` cannot be ordered by pIC50: under 4.00 for the first, under 4.00 for the second.

`COc1cc(NC(=O)OCc2ccccc2)nc(C(=O)Nc2cccc(CN)c2)c1` and `COc1cc(NC(=O)OCc2ccccc2)cc(C(=O)Nc2cccc(CN)c2)c1` cannot be ordered by pIC50: under 4.00 for the first, under 4.00 for the second.

`CN(C)Cc1csc(NC(=O)[C@@H](NC(=O)OCc2ccccc2)c2ccc(OCc3ccccc3)cc2)n1` and `Cc1ccc(CN(C)C)cc1NC(=O)[C@@H](NC(=O)OCc1ccccc1)c1ccc(OCc2ccccc2)cc1` cannot be ordered by pIC50: under 4.00 for the first, under 4.00 for the second.

First: Cc1nc(COc2ccc([C@@H](NC(=O)OCc3ccccc3)C(=O)Nc3cccc(CN)c3)cc2)cs1
Second: Cc1csc(COc2cccc([C@H](NC(=O)OCc3ccccc3)C(=O)Nc3cccc(CN)c3)c2)n1
The pIC50 of the first is lower: under 4.00 for the first, 4.56 for the second. The second is the more potent here.

`COC(=O)[C@H](NC(=O)OC(C)(C)C)c1ccc(-c2csc(C)c2)cc1` and `CC(C)(C)OC(=O)NCc1cccc(NC(=O)c2cc(N)cc(Cl)c2)c1` cannot be ordered by pIC50: under 4.00 for the first, under 4.00 for the second.

`Fc1cc(F)c2[nH]cc(CN3CCC(c4cscn4)CC3)c2c1F` and `Clc1cc(Cl)c2c(CN3CCC(c4cscn4)CC3)c[nH]c2c1` cannot be ordered by pIC50: under 4.00 for the first, under 4.00 for the second.

`O=C(Nc1cc(Cl)cc(C(=O)Nc2nc3c(s2)CCNC3)c1)OCc1ccccc1` and `O=C(Nc1cc(Cl)cc(C(=O)Nc2nc3c(s2)CNC3)c1)OCc1ccccc1` cannot be ordered by pIC50: under 4.00 for the first, under 4.00 for the second.

First: COc1c(C)cc(C(=O)Nc2cccc(CN)c2)cc1NC(=O)OCc1ccccc1
Second: Cc1c(NC(=O)OCc2ccccc2)cc(C(=O)Nc2cccc(CN)c2)cc1C(F)(F)F
The pIC50 of the first is lower: under 4.00 for the first, 4.04 for the second.

`COc1ccc(CN(C)C)cc1NC(=O)[C@@H](NC(=O)OCc1ccccc1)c1ccc(OCc2ccccc2)cc1` and `CN(C)Cc1cc(NC(=O)[C@@H](NC(=O)OCc2ccccc2)c2ccc(OCc3ccccc3)cc2)ccc1Cl` cannot be ordered by pIC50: under 4.00 for the first, under 4.00 for the second.

`CC(C)(C)OC(=O)Nc1cccc2[nH]cc(CN3CCC(c4cscn4)CC3)c12` and `Cc1ccc(NC(=O)OC(C)(C)C)c2[nH]cc(CN3CCC(c4cscn4)CC3)c12` cannot be ordered by pIC50: under 4.00 for the first, under 4.00 for the second.

`Cn1nc2c(c1NC(=O)[C@@H](NC(=O)OCc1ccccc1)c1ccc(OCc3ccccc3)cc1)CNC2` and `O=C(N[C@@H](C(=O)Nc1nc2c(s1)CNC2)c1ccc(OCc2ccccc2)cc1)OCc1ccccc1` cannot be ordered by pIC50: under 4.00 for the first, under 4.00 for the second.

`CS(=O)(=O)c1cc(NC(=O)OCc2ccccc2)cc(C(=O)Nc2cccc(CN)c2)c1` and `Cc1cc(NC(=O)OCc2ccccc2)cc(C(=O)Nc2cccc(CN)c2)c1C` cannot be ordered by pIC50: under 4.00 for the first, under 4.00 for the second.

First: COC(=O)C1(S(=O)(=O)N[C@H](C(=O)Nc2cccc(CN)c2)c2ccc(OCc3ccccc3)cc2)CCC1
Second: C[C@H]1CC[C@H](CS(=O)(=O)N[C@H](C(=O)Nc2cccc(CN)c2)c2ccc(OCc3ccccc3)cc2)CC1
The pIC50 of the first is lower: under 4.00 for the first, 4.47 for the second.

`c1nc(C2CCN(Cc3n[nH]c4c3CCC4)CC2)cs1` and `c1nc(C2CCN(Cc3n[nH]c4c3COCC4)CC2)cs1` cannot be ordered by pIC50: under 4.00 for the first, under 4.00 for the second.

`NCc1cccc(NC(=O)[C@@H](NC(=O)OCc2ccccc2)c2ccc(OC[C@H]3CCCCO3)cc2)c1` and `CCN1CC[C@@H](COc2ccc([C@@H](NC(=O)OCc3ccccc3)C(=O)Nc3cccc(CN)c3)cc2)C1` cannot be ordered by pIC50: under 4.00 for the first, under 4.00 for the second.

Going from `O=C(Nc1cc(Cl)cc(C(=O)Nc2n[nH]c3c2CNC3)c1)OCc1ccccc1` to `Cn1nc(NC(=O)c2cc(Cl)cc(NC(=O)OCc3ccccc3)c2)c2c1CNC2`, the pIC50 falls from 4.57 to 4.05 (0.52 log units). The first is the more potent here.

`Cc1c[nH]nc1CN1CCC(c2cscn2)CC1` and `c1ccc(-c2c[nH]nc2CN2CCC(c3cscn3)CC2)cc1` cannot be ordered by pIC50: under 4.00 for the first, under 4.00 for the second.

`O=C(Nc1cc(Cl)cc(C(=O)Nc2ncc([C@H]3CCCN3)s2)c1)OCc1ccccc1` and `O=C(Nc1cc(Cl)cc(C(=O)Nc2cc3n(n2)CCNC3)c1)OCc1ccccc1` cannot be ordered by pIC50: under 4.00 for the first, under 4.00 for the second.

`CC(C)(C)c1ccc2[nH]cc(CN3CCC(c4cscn4)CC3)c2c1` and `N#Cc1ccc2[nH]cc(CN3CCC(c4cscn4)CC3)c2c1` cannot be ordered by pIC50: under 4.00 for the first, under 4.00 for the second.

Going from `O=C(Nc1cc(Cl)cc(C(=O)Nc2n[nH]c3c2CNC32CC2)c1)OCc1ccccc1` to `Cn1nc2c(c1NC(=O)c1cc(Cl)cc(NC(=O)OCc3ccccc3)c1)CNC2`, the pIC50 falls from 4.17 to under 4.00.

`CCc1cccc2c(CN3CCC(c4cscn4)CC3)c[nH]c12` and `N#Cc1cccc2c(CN3CCC(c4cscn4)CC3)c[nH]c12` cannot be ordered by pIC50: under 4.00 for the first, under 4.00 for the second.

Compared with `COc1cc(Br)ccc1[C@@H](NC(=O)OCc1ccccc1)C(=O)Nc1cccc(CN)c1`, `NCc1cccc(NC(=O)c2ccc(OCC(F)(F)F)c(NC(=O)OCc3ccccc3)c2)c1` is lower in pIC50: 4.08 for the first, under 4.00 for the second. The first is the more potent here.

`CN(C)Cc1ccc(N2CCN(Cc3c[nH]c4ccccc34)CC2)nc1` and `c1cncc(N2CCCN(Cc3c[nH]c4ccccc34)CC2)c1` cannot be ordered by pIC50: under 4.00 for the first, under 4.00 for the second.

`CC(C)(C)c1cc(CN2CCC(c3cscn3)CC2)n[nH]1` and `c1cc(-c2cc(CN3CCC(c4cscn4)CC3)n[nH]2)ccn1` cannot be ordered by pIC50: under 4.00 for the first, under 4.00 for the second.

`c1ccc2sc(C3CCN(CCc4c[nH]c5ccccc45)CC3)nc2c1` and `Cc1[nH]c2ccccc2c1CN1CCC(c2nc3ccccc3s2)CC1` cannot be ordered by pIC50: under 4.00 for the first, under 4.00 for the second.

`O=C1CN(Cc2c[nH]c3ccccc23)CCN1c1cccnc1` and `C1=C(c2cccnc2)CN(Cc2c[nH]c3ccccc23)CC1` cannot be ordered by pIC50: under 4.00 for the first, under 4.00 for the second.

`COc1cc2c(CN3CCC(c4cscn4)CC3)c[nH]c2cc1Cl` and `c1cc(CN2CCC(c3cscn3)CC2)[nH]n1` cannot be ordered by pIC50: under 4.00 for the first, under 4.00 for the second.

Compared with `NCc1cccc(NC(=O)c2cc(NC(=O)OCc3ccccc3)cc(Cl)c2Cl)c1`, `NC[C@H]1CC[C@H](CNC(=O)c2cc(Cl)cc(NC(=O)OCc3ccccc3)c2)CC1` is lower in pIC50: 4.06 for the first, under 4.00 for the second. The first is the more potent here.

`C[C@H]1CNC[C@H](C(=O)Nc2cccc(CN)c2)C1` and `O=C(Nc1cccnc1)C1CCN(Cc2c[nH]c3ccccc23)CC1` cannot be ordered by pIC50: under 4.00 for the first, under 4.00 for the second.

`Cn1ccc(Nc2ccc(S(=O)(=O)Nc3ccc(Cl)cc3C(=O)O)cn2)n1` and `NCc1ccc(Oc2ccc(S(=O)(=O)Nc3ccc(Cl)cc3C(=O)NCC(F)(F)F)cc2)cc1` cannot be ordered by pIC50: under 4.00 for the first, under 4.00 for the second.

`FC1(c2cccnc2)CN(Cc2c[nH]c3ccccc23)C1` and `c1cncc([C@@H]2CN(Cc3c[nH]c4ccccc34)CCO2)c1` cannot be ordered by pIC50: under 4.00 for the first, under 4.00 for the second.

`CN1CCn2nc(NC(=O)[C@@H](NC(=O)OCc3ccccc3)c3ccc(OCc4ccccc4)cc3)cc2C1` and `CN1CCc2nc(NC(=O)[C@@H](NC(=O)OCc3ccccc3)c3ccc(OCc4ccccc4)cc3)sc2C1` cannot be ordered by pIC50: under 4.00 for the first, under 4.00 for the second.

`Cc1c(C(F)(F)F)n[nH]c1CN1CCC(c2cscn2)CC1` and `Cc1[nH]c2ccccc2c1CN1CCC(c2c[nH]c3ncccc23)CC1` cannot be ordered by pIC50: under 4.00 for the first, under 4.00 for the second.

`CC(C)N1CCc2nc(NC(=O)[C@H](NC(=O)OCc3ccccc3)c3ccc(OCc4ccccc4)cc3)sc2C1` and `O=C(N[C@@H](C(=O)Nc1ncc([C@H]2CCCN2)s1)c1ccc(OCc2ccccc2)cc1)OCc1ccccc1` cannot be ordered by pIC50: under 4.00 for the first, under 4.00 for the second.

`CN(Cc1cccnc1)Cc1c[nH]c2ccccc12` and `CC[C@@H](NCc1c[nH]c2ccccc12)c1cccnc1` cannot be ordered by pIC50: under 4.00 for the first, under 4.00 for the second.

`c1ccc([C@H](NCc2c[nH]c3ccccc23)c2cccnc2)cc1` gave a pIC50 of under 4.00.

For `NCc1cccc(NC(=O)[C@@H](NC(=O)OCc2ccccc2)c2ccc(Br)c(Cl)c2)c1`, the pIC50 was 5.04 and 5.08.
`NCc1cccc(NC(=O)C[C@@H](NC(=O)OCc2ccccc2)c2ccc(Cl)c(Br)c2)c1` showed a pIC50 of 4.91.

From ChEMBL document CHEMBL5604063, “ASAP - DENV-2 NS2B-NS3 protease fluorescence dose response” (2024)
